Assay results: ChEMBL document CHEMBL3414487, “Synthesis and biological activity of salinomycin conjugates with floxuridine” (Eur J Med Chem, 2015)
Values after ≈ are worked out from the molar mass of the structure shown.

Assays:
[1] = test system: Staphylococcus epidermidis; assay: Antimicrobial activity against Staphylococcus epidermidis ATCC 12228 after 18 hrs by two-fold serial microdilution method; format: functional; details: ATCC 12228, 18 h
[2] = test system: Staphylococcus epidermidis; assay: Antimicrobial activity against methicillin-resistant Staphylococcus epidermidis 489/11 after 18 hrs by two-fold serial microdilution method; format: functional; details: 489/11, 18 h
Staphylococcus aureus [3] = assay: Antimicrobial activity against Staphylococcus aureus […] 4163 after 18 hrs by two-fold serial microdilution method; format: functional
Staphylococcus aureus [4] = assay: Antimicrobial activity against methicillin-resistant Staphylococcus aureus 456/11 after 18 hrs by two-fold serial microdilution method; format: functional; details: 456/11, 18 h
Staphylococcus aureus [5] = assay: Antimicrobial activity against methicillin-resistant Staphylococcus aureus 452/11 after 18 hrs by two-fold serial microdilution method; format: functional; details: 452/11, 18 h
[6] = test system: Staphylococcus epidermidis; assay: Antimicrobial activity against methicillin-resistant Staphylococcus epidermidis 461/11 after 18 hrs by two-fold serial microdilution method; format: functional; details: 461/11, 18 h
Staphylococcus aureus [7] = assay: Antimicrobial activity against methicillin-resistant Staphylococcus aureus 514/11 after 18 hrs by two-fold serial microdilution method; format: functional; details: 514/11, 18 h
Staphylococcus aureus [8] = assay: Antimicrobial activity against methicillin-resistant Staphylococcus aureus 522/12 after 18 hrs by two-fold serial microdilution method; format: functional; details: 522/12, 18 h
Staphylococcus aureus [9] = assay: Antimicrobial activity against Staphylococcus aureus ATCC 6538 after 18 hrs by two-fold serial microdilution method; format: functional; details: ATCC 6538, 18 h
Staphylococcus aureus [10] = assay: Antimicrobial activity against methicillin-resistant Staphylococcus aureus 573/12 after 18 hrs by two-fold serial microdilution method; format: functional; details: 573/12, 18 h
[11] = test system: Staphylococcus epidermidis; assay: Antimicrobial activity against methicillin-resistant Staphylococcus epidermidis 470/11 after 18 hrs by two-fold serial microdilution method; format: functional; details: 470/11, 18 h
[12] = test system: Staphylococcus epidermidis; assay: Antimicrobial activity against methicillin-resistant Staphylococcus epidermidis 460/11 after 18 hrs by two-fold serial microdilution method; format: functional; details: 460/11, 18 h
Staphylococcus aureus [13] = assay: Antimicrobial activity against methicillin-resistant Staphylococcus aureus 586/12 after 18 hrs by two-fold serial microdilution method; format: functional; details: 586/12, 18 h
[14] = Antiproliferative activity against human SW707 cells assessed as growth inhibition after 72 hrs by SRB method; format: functional, cell-based; details: Homo sapiens, SW707, 72 h
BALB/3T3 = assay: Antiproliferative activity against mouse BALB/3T3 cells assessed as growth inhibition after 72 hrs by SRB method; format: cell-based; details: BALB/3T3, 72 h
[15] = Antiproliferative activity against human HL60 cells assessed as growth inhibition after 72 hrs by MTT assay; format: functional, cell-based; details: HL-60, 72 h
[16] = Antiproliferative activity against human LS180 cells assessed as growth inhibition after 72 hrs by SRB method; format: functional, cell-based; details: Homo sapiens, LS180, 72 h
[17] = test system: Staphylococcus epidermidis; assay: Antimicrobial activity against methicillin-resistant Staphylococcus epidermidis 459/11 after 18 hrs by two-fold serial microdilution method; format: functional; details: 459/11, 18 h
[18] = Selectivity index, ratio of IC50 for mouse BALB/3T3 cells to IC50 for human SW707 cells; format: functional
LoVo [19] = assay: Antiproliferative activity against human LoVo cells assessed as growth inhibition after 72 hrs by SRB method; format: functional, cell-based; details: Homo sapiens, LoVo, 72 h
HL-60 [20] = assay: Resistance index, ratio of IC50 for human HL60/Vinc cells to IC50 for human HL60 cells
HT-29 [21] = assay: Selectivity index, ratio of IC50 for mouse BALB/3T3 cells to IC50 for human HT-29 cells; format: functional
[22] = Selectivity index, ratio of IC50 for mouse BALB/3T3 cells to IC50 for human LoVo/DX cells; format: functional
[23] = test system: Staphylococcus epidermidis; assay: Antimicrobial activity against methicillin-resistant Staphylococcus epidermidis 466/11 after 18 hrs by two-fold serial microdilution method; format: functional; details: 466/11, 18 h
[24] = Antiproliferative activity against human vincristine-resistant HL60/Vinc cells assessed as growth inhibition after 72 hrs by MTT assay; format: functional; details: Homo sapiens, HL60/vinc, 72 h
[25] = test system: Staphylococcus epidermidis; assay: Antimicrobial activity against methicillin-resistant Staphylococcus epidermidis 488/11 after 18 hrs by two-fold serial microdilution method; format: functional; details: 488/11, 18 h
[26] = test system: Staphylococcus epidermidis; assay: Antimicrobial activity against methicillin-resistant Staphylococcus epidermidis 468/11 after 18 hrs by two-fold serial microdilution method; format: functional; details: 468/11, 18 h
Staphylococcus aureus [27] = assay: Antimicrobial activity against methicillin-resistant Staphylococcus aureus 537/12 after 18 hrs by two-fold serial microdilution method; format: functional; details: 537/12, 18 h
[28] = test system: Staphylococcus epidermidis; assay: Antimicrobial activity against Staphylococcus epidermidis ATCC 35984 after 18 hrs by two-fold serial microdilution method; format: functional; details: ATCC 35984, 18 h
Staphylococcus aureus [29] = assay: Antimicrobial activity against methicillin-resistant Staphylococcus aureus 462/11 after 18 hrs by two-fold serial microdilution method; format: functional; details: 462/11, 18 h
Staphylococcus aureus [30] = assay: Antimicrobial activity against methicillin-resistant Staphylococcus aureus 585/12 after 18 hrs by two-fold serial microdilution method; format: functional; details: 585/12, 18 h
[31] = Antiproliferative activity against human doxorubicin-resistant LoVo/DX cells assessed as growth inhibition after 72 hrs by SRB method; format: functional, cell-based
Staphylococcus aureus [32] = assay: Antimicrobial activity against Staphylococcus aureus ATCC 29213 after 18 hrs by two-fold serial microdilution method; format: functional; details: ATCC 29213, 18 h
Staphylococcus aureus [33] = assay: Antimicrobial activity against methicillin-resistant Staphylococcus aureus 572/12 after 18 hrs by two-fold serial microdilution method; format: functional; details: 572/12, 18 h
HL-60 [34] = assay: Selectivity index, ratio of IC50 for mouse BALB/3T3 cells to IC50 for human HL60 cells; format: functional
LoVo [35] = assay: Resistance index, ratio of IC50 for human LoVo/DX cells to IC50 for human LoVo cells
[36] = Selectivity index, ratio of IC50 for mouse BALB/3T3 cells to IC50 for human LS180 cells; format: functional
LoVo [37] = assay: Selectivity index, ratio of IC50 for mouse BALB/3T3 cells to IC50 for human LoVo cells; format: functional
[38] = Selectivity index, ratio of IC50 for mouse BALB/3T3 cells to IC50 for human HL60/Vinc cells; format: functional
HT-29 [39] = assay: Antiproliferative activity against human HT-29 cells assessed as growth inhibition after 72 hrs by SRB method; format: functional, cell-based; details: Homo sapiens, HT-29, 72 h
[40] = test system: Staphylococcus epidermidis; assay: Antimicrobial activity against methicillin-resistant Staphylococcus epidermidis 469/11 after 18 hrs by two-fold serial microdilution method; format: functional; details: 469/11, 18 h
[41] = test system: Staphylococcus epidermidis; assay: Antimicrobial activity against methicillin-resistant Staphylococcus epidermidis 467/11 after 18 hrs by two-fold serial microdilution method; format: functional; details: 467/11, 18 h
Staphylococcus aureus [42] = assay: Antimicrobial activity against Staphylococcus aureus ATCC 25923 after 18 hrs by two-fold serial microdilution method; format: functional; details: ATCC 25923, 18 h

O=C(O)c1cn(C2CC2)c2cc(N3CCNCC3)c(F)cc2c1=O [CIPROFLOXACIN]
MIC [1]: 0.76 µM (≈ 0.252 µg/mL) | MIC [2]: 0.76 µM (≈ 0.252 µg/mL) | MIC (Staphylococcus aureus [3]): 0.76 µM (≈ 0.252 µg/mL) | MIC (Staphylococcus aureus [4]): 96.7 µM (≈ 32 µg/mL) | MIC (Staphylococcus aureus [5]): 96.7 µM (≈ 32 µg/mL) | MIC [6]: 0.76 µM (≈ 0.252 µg/mL) | MIC (Staphylococcus aureus [7]): 96.7 µM (≈ 32 µg/mL) | MIC (Staphylococcus aureus [8]): 96.7 µM (≈ 32 µg/mL) | MIC (Staphylococcus aureus [9]): 0.76 µM (≈ 0.252 µg/mL) | MIC (Staphylococcus aureus [10]): 96.7 µM (≈ 32 µg/mL)

O=c1[nH]cc(F)c(=O)[nH]1 [FLUOROURACIL]
MIC [11]: 0.48 µM (≈ 0.0624 µg/mL) | MIC [12]: 1.92 µM (≈ 0.25 µg/mL) | MIC (Staphylococcus aureus [13]): 3.85 µM (≈ 0.501 µg/mL) | MIC [1]: 3.85 µM (≈ 0.501 µg/mL) | MIC [2]: 0.48 µM (≈ 0.0624 µg/mL) | IC50 [14]: 20.5 µM | IC50 (BALB/3T3): 3.23 µM | IC50 [15]: 22.5 µM | IC50 [16]: 38.9 µM | MIC [17]: 3.85 µM (≈ 0.501 µg/mL) | MIC (Staphylococcus aureus [3]): 1.92 µM (≈ 0.25 µg/mL) | Selectivity Index [18]: 0.16 | IC50 (LoVo [19]): 4.69 µM | Ratio IC50 (HL-60 [20]): 0.94 | Selectivity Index (HT-29 [21]): 0.13 | Selectivity Index [22]: 0.54 | MIC (Staphylococcus aureus [4]): 3.85 µM (≈ 0.501 µg/mL) | MIC [23]: 0.48 µM (≈ 0.0624 µg/mL) | IC50 [24]: 21.2 µM | MIC [25]: 1.92 µM (≈ 0.25 µg/mL) | MIC [26]: 0.48 µM (≈ 0.0624 µg/mL) | MIC (Staphylococcus aureus [27]): 7.69 µM (≈ 1 µg/mL) | MIC [28]: 1.92 µM (≈ 0.25 µg/mL) | MIC (Staphylococcus aureus [5]): 3.85 µM (≈ 0.501 µg/mL) | MIC [6]: 0.96 µM (≈ 0.125 µg/mL) | MIC (Staphylococcus aureus [7]): 3.85 µM (≈ 0.501 µg/mL) | MIC (Staphylococcus aureus [29]): 7.69 µM (≈ 1 µg/mL) | MIC (Staphylococcus aureus [30]): 3.85 µM (≈ 0.501 µg/mL) | IC50 [31]: 6 µM | MIC (Staphylococcus aureus [32]): 3.85 µM (≈ 0.501 µg/mL) | MIC (Staphylococcus aureus [33]): 3.85 µM (≈ 0.501 µg/mL) | MIC (Staphylococcus aureus [8]): 7.69 µM (≈ 1 µg/mL) | Selectivity Index (HL-60 [34]): 0.14 | Ratio IC50 (LoVo [35]): 1.28 | Selectivity Index [36]: 0.08 | MIC (Staphylococcus aureus [9]): 3.85 µM (≈ 0.501 µg/mL) | Selectivity Index (LoVo [37]): 0.69 | MIC (Staphylococcus aureus [10]): 3.85 µM (≈ 0.501 µg/mL) | Selectivity Index [38]: 0.15 | IC50 (HT-29 [39]): 25.1 µM | MIC [40]: 1.92 µM (≈ 0.25 µg/mL) | MIC [41]: 0.48 µM (≈ 0.0624 µg/mL) | MIC (Staphylococcus aureus [42]): 1.92 µM (≈ 0.25 µg/mL)

COc1cccc2c1C(=O)c1c(O)c3c(c(O)c1C2=O)C[C@@](O)(C(=O)CO)C[C@@H]3O[C@H]1C[C@H](N)[C@H](O)[C@H](C)O1 [DOXORUBICIN]
IC50 [14]: 0.18 µM | IC50 (BALB/3T3): 0.18 µM | IC50 (LoVo [19]): 0.15 µM | IC50 [24]: 0.88 µM | IC50 [31]: 5.46 µM | IC50 (HT-29 [39]): 0.89 µM
